Data set [1] is described as follows: Hemolysis of human erythrocytes. The class given is cell-based. Particulars: 200 μM compound, 1 h, 37 °C. The method, then: (§1) The human erythrocyte concentrate was prepared according to the kit manual from the Biomaterial Hemolytic Assay Kit (Hemoscan). After the human erythrocytes had been washed and diluted with manufacture buffer, 100 μL of erythrocytes (10%) were added into 100 μL of various concentrations of compounds in PBS. 1% of Triton X (1%) was the positive control, while PBS was the negative control. The erythrocytes were then gently mixed with the TPA compounds and further incubated for an hour at 37 °C. After that, the erythrocytes were centrifuged (1000 rpm, 5 min), and 20 μL of supernatant was added to 180 μL of PBS in a 96-well plate. The optical density at 380, 415, and 450 nm was measured by a plate reader. The final OD value of the compounds was calculated as (2 × OD415) – (OD450 + OD380) where OD380, OD415, and OD450 are the optical density of the solution at 380, 415, and 450 nm, respectively. The hemolysis rates of the compounds were calculated as (ODcompound – ODPBS)/(ODTritonX – ODPBS) × 100% where ODcompound, ODPBS, and ODTritonX are the final OD values of the erythrocytes mixed with TPA compounds, PBS, and 1% Triton X, respectively. The experiment was performed in triplicate.

For the next data set, the system named is human erythrocytes. Description: Hemolysis of human erythrocytes. Type of data set: cell-based. As for the experimental part: as §1
Data set [2] in a line: Cytotoxicity (MTT) assay against HFF-1 cells. Type of data set: cell-based. Particulars: human, no irradiation, read-out: 50% cytotoxicity concentration (CC50) against HFF-1 cells. As for the experimental part: The cytotoxicity of TPA-1, TPA-0, and TPA-NC-1 against HFF-1 cells was evaluated using the 3-(4,5-dimethylthiazol-2-yl)-2,5-diphenyltetrazolium bromide (MTT) assay kit from ThermoFisher Scientific. In general, HFF-1 cells (MEM, 10% FBS, and 1% penicillin-streptomycin) were seeded in a 96-well plate with a density of 3000 cells/well overnight at 37 °C with 5% CO2. Then, the cells were treated with different concentrations of compounds for 24 h. MTT (10 μL, 5 mg/mL) was added to the medium, and the cells were further incubated for 3 h. The medium was then replaced by DMSO (100 μL). After gently shaking the plate for 30 s, the optical density of the solutions at 570 nm was measured by a BMG Labtech CLARIOstar microplate reader. The cell viability was calculated as (ODcompound – ODDMSO)/(ODmedium - ODDMSO) × 100% where ODcompound, ODmedium, and ODDMSO are the optical densities of the treated cell, nontreated cells, and DMSO at 570 nm, respectively. The experiment was conducted in triplicate. The CC50 values were calculated using GraphPad Prism 8.

A short description of data set [3]: Log P, 1-octanol/water partition. The class given is physicochemical. Particulars: 1-octanol/water (1:1). The method, then:
The log P values of TPA compounds were obtained according to previously reported methods.[66] 1-octanol was first presaturated with water. Equal volume and concentration of TPA-NC-1, TPA-0, and TPA-1 were added to a 1-octanol/water (1:1) mixture and vortexed for 1 min. The mixture was then centrifuged for 5 min at 13,500 rpm. After that, the absorptions of the compound in the 1-octanol and water phases were measured. The concentrations of the compound in both phases were calculated by using the absorption calibration curve of the corresponding compound. Log P = log (concentration of the compound in 1-octanol/concentration of the compound in water).

Data set [4] relates to P. aeruginosa (ATCC 27853). Nature of the data set: MIC assay (broth microdilution, CLSI), without light. The class given is cell-based. The note with it: Pseudomonas aeruginosa, ATCC27853, light or radiation study; without light irradiation; read-out: MIC against P. aeruginosa (ATCC 27853). The method, then: (§2) The MIC assays of TPA-1 were conducted according to the broth microdilution methods described in the Clinical and Laboratory Standards Institute (CLSI) standard. A single colony of S. aureus (ATCC 29213), methicillin-resistant S. aureus (BAA 41), or P. aeruginosa (ATCC 27853) on an LB agar plate was picked and suspended in Mueller–Hinton Broth (MHB). The bacterial culture was grown overnight at 37 °C. The next day, the bacteria culture was diluted 100 times in fresh MHB and grown to the mid log phase. Bacteria in the mid log phase were further diluted to 5 × 10^6 CFU/mL in cation-adjusted MHB (S. aureus) or MHB (P. aeruginosa). Ten μL of the diluted bacteria were added to a 96-well plate containing 90 μL of serial diluted TPA-1 in the corresponding medium. The plate was incubated overnight at 37 °C. The MICs of the TPA compounds were the concentrations at which no apparent bacteria were observed by the naked eye. Different concentrations of LTA were also added to examine the change in MIC values of TPA-1 against S. aureus. The experiments were conducted in triplicate.
In general terms: Broth dilution looks for growth in wells or tubes with falling amounts of substance.

Another data set deals with S. aureus (ATCC 29213). The description is as above. The class given is cell-based. The note with it: Staphylococcus aureus, ATCC29213, light or radiation study, read-out: MIC against S. aureus (ATCC 29213). The method, then: as §2
Data set [5] relates to methicillin-resistant S. aureus (BAA 41). The description is as above. Type of data set: cell-based. Particulars: Staphylococcus aureus, BAA41, light or radiation study, read-out: MIC against methicillin-resistant S. aureus (BAA 41). The method, then:
as §2

For the next data set, the system named is S. aureus. Nature of the data set: Resistance development assay on S. aureus. Type of data set: cell-based, Staphylococcus aureus. As for the experimental part: The MICs for TPA-1 and norfloxacin against S. aureus were first determined by the above-mentioned method. The wells with 0.5 × MIC of compounds were transferred to 1 mL fresh MHB and incubated under darkness for 3–4 h at 37 °C. The bacteria were then used to conduct a MIC assay again. The experiments were repeated for 20 days. The fold changes in the MIC values of the compounds were recorded. The experiments were performed in duplicate.

The results in this text go back to article PMC12035805, “A Water-Soluble Aggregation-Induced Emission Photosensitizer with Intrinsic Antibacterial Activity as an Antiplanktonic and Antibiofilm Therapeutic Agent” (Journal of Medicinal Chemistry, 2025).

≈ marks a conversion by molar mass, not a printed value. Where two headings read alike, the source gives them in different places.

A word on the HC50: it is the concentration giving 50% haemolysis. A high value points to less damage to red cells. One may read the logP as a log measure of how a compound divides between an organic and an aqueous phase. Read a high logP as a more lipophilic compound. Broadly, the MIC is the lowest concentration that inhibits growth of the organism.

In the case of `CC[n+]1c(/C=C/c2ccc(-c3ccc(N(c4ccc(OC)cc4)c4ccc(OC)cc4)cc3)s2)sc2ccccc21.[Br-]` [TPA-NC-1, reference compound], the hemolysis at 1 h, 200 µM in data set [1] is > 60%. Also, the HC50 in the data set with human erythrocytes is < 200 µM. Moreover, the CC50 at 24 h in data set [2] stood at 7.8 ± 0.7 µM. This compound also gave a logP in data set [3] of 1.1.
For the compound `C[C@@H](O)[C@H]1C(=O)N2C(C(=O)O)=C(S[C@@H]3CN[C@H](C(=O)N(C)C)C3)[C@H](C)[C@H]12` [Meropenem, reference compound], the MIC in data set [4] turned out to be 2.5 µM (≈ 0.959 µg/mL); in the data set with S. aureus (ATCC 29213) (without light irradiation), 0.312 µM (≈ 0.12 µg/mL).
Take `CN[C@H](CC(C)C)C(=O)N[C@H]1C(=O)N[C@@H](CC(N)=O)C(=O)N[C@H]2C(=O)N[C@H]3C(=O)N[C@H](C(=O)N[C@H](C(=O)O)c4cc(O)cc(O)c4-c4cc3ccc4O)[C@H](O)c3ccc(c(Cl)c3)Oc3cc2cc(c3O[C@@H]2O[C@H](CO)[C@@H](O)[C@H](O)[C@H]2O[C@H]2C[C@](C)(N)[C@H](O)[C@H](C)O2)Oc2ccc(cc2Cl)[C@H]1O` [Vancomycin, reference compound]: the MIC (in data set [5]; with S. aureus (ATCC 29213)) was 0.625 µM (≈ 0.906 µg/mL) each time.
For the compound `CC[n+]1c(/C=C/c2ccc(-c3ccc(N(c4ccc(OCCC[N+](C)(C)C)cc4)c4ccc(OCCC[N+](C)(C)C)cc4)cc3)s2)sc2ccccc21.[Br-].[Br-].[Br-]` [TPA-0], the hemolysis at 1 h, 200 µM in data set [1] was < 3%. The HC50 in the data set with human erythrocytes is > 200 µM. For the same compound, the CC50 at 24 h in data set [2] came to 120 ± 20 µM. The logP in data set [3] was -1.7.
For the compound `CCn1cc(C(=O)O)c(=O)c2cc(F)c(N3CCNCC3)cc21` [norfloxacin, reference compound], the “increase of MIC against S. aureus after treatment for 20 days” value in the data set with S. aureus (20 days of passages at 0.5 × MIC) came to 1024 fold. The minimal inhibitory concentration (MIC) in the data set on S. aureus (Staphylococcus aureus, read-out: initial MIC against S. aureus in resistance development assay) worked out at 0.5 µM (≈ 0.16 µg/mL).
